Data on one molecule can be found in US20110152379A1, “COMPOSITION FOR CONTROL OF AGING AND/OR EXTENSION OF LIFE, CONTAINING DAPSONE AS ACTIVE INGREDIENT” (priority 2008, published 2011).

For one experiment, the system named is ATP. Kind of experiment: Measurement of ATP amount in C. elegans. The experiment is classed as in vivo. The following applies: C. elegans treated with DDS; FIG. 9. The procedure:
The amount of ATP was measured by slightly modifying the method as mentioned above. In order to, analyze the total amount of ATP, C. elegans was cultured by feeding only on PABA or by feeding on PABA and dapsone, and then was washed with S Basal buffer solution (0.1 M NaCl/0.05 M potassium phosphate buffer, pH 6.0) to remove a contaminant and prepare a sample for measuring. The sample was ultimately adjusted to be 100 ul and then froze at −80° C. C. elegans that was frozen was immediately heated for 15 minutes to erupt ATP and then maintained at a cold condition. Since then, the residue of C. elegans was removed by using a centrifuge (at 15,000 g for 5 minutes). The amount of ATP was measured by using the reagent of bioluminescence assay kit CLS II (Roche Molecular Biochemicals) and Luminometer (available from PerkinElmer company). The amount of ATP was standardized with the amount of protein.

The test system of a further experiment is calcium. Kind of experiment: Calcium amount in a cell, Fluo-4. The following applies: human diploid fibroblast, 1 mM PQ, FIG. 27. In kind it is cell-based. The protocol:
HDF cell was cultured at 96-well plate and the calcium in cell was measured by using Fluo-4AM. […] The amount of Calcium in a cell was measured by using Fluo-4 (5 uM) that is a fluorescent material for labeling calcium and is well passed through a cell. The cell was cultured at 37° C. for 30 minutes and then maintained at a room temperature for 30 minutes without light in order for a complete de-esterification of AM ester in a cell: The fluorescent material that was left was removed except a cell by using HBSS containing 20 mM of HEPES (pH 7.4), and 100 ul of HBSS was added into wells containing cells, respectively. The fluorescent signal was measured at 494 nm for the excitation wavelength and 516 nm for the emission wavelength by using the multi-well fluorescence plate Eclipse fluorescence spectrophotometer (Varian, Calif., USA). The result was shown as Relative fluorescence units (RFUs).

Consider `Nc1ccc(S(=O)(=O)c2ccc(N)cc2)cc1` [DDS, 4,4′-diaminodiphenylsulfone], for which the ATP amount result in the experiment with ATP is “decreased”. In addition, the “amount of calcium increased by PQ” value in the experiment on calcium is “decreases”.
